# Columns and labels:
# wild type PKR [1] = target: T1, wild type PKR (Homo sapiens, UniProt P30613); test: Cell based ATP assay in purified red blood cells; design: endogenous in cells; host or cells: purified red blood cells from blood of healthy volunteers; conditions: RBCs, overnight at 37° C., ATP levels by Cell-Titer-Glo
# Method: Example 16. Red Blood Cell (RBC) Purification
# Fresh blood drawn from healthy volunteers into K2EDTA tubes was collected. Whole blood was pelleted by spinning at 500 g for 10 minutes. Cut transfusion bag port off of Purecell leukocyte reduction neofilter (Fisher NCO267633) one (1) inch above filter. Attach a 10 ml syringe barrel to the remaining cut tubing attached to neofilter. The plasma layer was removed from the pellet of the whole blood and the pellet was resuspended in 2× volume of phosphate buffered saline (PBS). Transfer 9 ml re-suspended blood cell pellet to prepared 10 ml syringe that is attached to the neofilter. Allow whole blood to gravity flow through filter until all fluid runs through upper tubing into filter disc. Add plunger to the syringe, remove syringe from clamp and invert the filter, then plunge air through the syringe filter system. Using a new 5 ml syringe, remove filtered RBCs from the bag by the syringe port and transfer purified RBCs to a 5 ml snap cap tube that has been incubated on ice. Spin 5 ml snap cap tube at 500 g for 10 minutes at 15 C, aspirate supernatant and resuspend in AGAM (1×PBS, 1% glucose, 170 mg/L adenine, 5.25 g/L mannitol) at a density of 4×10^9 cells/mL.
# Example 17. Cell Based ATP Assay
# For cell based ATP assays, the compound as described herein was prepared in 100% DMSO as a 10 mM stock. Serial dilutions (1:4) were performed in 96-well V-bottom storage plate and then added 1:100 to 96-well V-bottom plates containing AGAM. RBCs were diluted in AGAM media to a density of 1×10^7 cells/mL before added 90 μL/well to black clear bottom assay plates (final compound concentration at 0.1% DMSO concentration). Assay plates were sealed using aluminum foil seals and incubated overnight at 37° C. in a humidified chamber. ATP levels were read out using Cell-Titer-Glo (Promega).
# wild type PKR [2] = target: T1, wild type PKR; test: PKR mutant assay (AC50), wild type PKR; type: biochemical; conditions: wild type PKR enzyme; read-out: PKR WT AC50
# Method: (§1) Example 11. PKR Mutant Assay
# (§2) PKR or PKR mutant enzyme solution was diluted into a reaction mix, which contains 1× buffer (100 mM KCl, 50 mM Tris pH 7.5, 5 mM MgCl2) as well as PEP (cont depends on enzyme), 180 μM NADH, 0.5 units LDH, 1 mM DTT, 0.03% BSA; final assay concentrations after 1.11 fold dilution are indicated.
# (§3) 2 μL of test compound was added into wells first, and then 180 μL reaction mix was added.
# (§4) Reactions mixture with test compound was assembled except for ADP, and plates were stored for 60 minutes at room temperature.
# (§5) 20 uL ADP was added to start reaction at room temperature and reaction progress was measured as changes in absorbance at 340 nm wavelength at room temperature.
# (§6) Test Compound Preparation:
# (§7) Test compound stock was made at 100× concentration in 100% DMSO (10 mM)
# (§8) 1 to 3 dilutions were made for 11 points (i.e. 50 μl of first concentration added to 100 μl 100% DMSO to yield 3.33 mM, 50 μl of this added to 100 μl DMSO to yield 1.11 mM, and so forth) • 1 to 100 dilution into assay (2 μl in 200 μl) yielded starting concentration of 100 μM, decreasing 3 fold for 11 points.
# (§9) Assay Buffer: 100 mM KCl, 50 mM Tris 7.5, 5 mM MgCl2, 1 ruM DTT, 0.03% BSA
# (§10) Reaction Mixture: PKR mutant enzyme: 40-400 ng/well; ADP: 0.2-1.65 mM; PEP: 0.1-0.5 mM; NADH:180 μM; LDH: 0.5 units (Sigma #59023); DTT: 1 mM; BSA: 0.03%.
# PKR R510Q = PKR R510Q (Homo sapiens, UniProt P30613, R510Q); test: PKR mutant assay (AC50), PKR R510Q; type: biochemical; conditions: PKR R510Q mutant enzyme; read-out: PK R510Q AC50
# Method: as §1, §2, §3, §4, §5, §6, §7, §8, §9, §10
# PKR K410E = PKR K410E (Homo sapiens, UniProt P30613, K410E); test: PKR mutant assay (AC50), PKR K410E; type: biochemical; conditions: PKR K410E mutant enzyme
# Method: as §1, §2, §3, §4, §5, §6, §7, §8, §9, §10
# T1 sequence (P30613 whole entry): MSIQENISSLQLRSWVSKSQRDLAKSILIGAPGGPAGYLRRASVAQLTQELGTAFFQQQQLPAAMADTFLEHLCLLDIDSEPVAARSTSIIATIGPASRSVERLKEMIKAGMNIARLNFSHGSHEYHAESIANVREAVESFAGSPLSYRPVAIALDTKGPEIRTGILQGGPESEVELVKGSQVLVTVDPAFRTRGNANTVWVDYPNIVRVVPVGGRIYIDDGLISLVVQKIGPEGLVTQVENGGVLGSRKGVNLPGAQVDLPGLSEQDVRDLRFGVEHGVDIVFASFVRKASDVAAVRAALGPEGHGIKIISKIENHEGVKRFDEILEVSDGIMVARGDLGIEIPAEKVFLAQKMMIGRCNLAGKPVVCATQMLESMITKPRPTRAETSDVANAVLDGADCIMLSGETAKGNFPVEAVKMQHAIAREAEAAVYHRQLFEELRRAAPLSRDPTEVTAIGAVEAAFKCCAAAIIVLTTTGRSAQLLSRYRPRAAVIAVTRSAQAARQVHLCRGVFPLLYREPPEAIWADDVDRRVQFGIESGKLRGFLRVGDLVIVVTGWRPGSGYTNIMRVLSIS
# Sequence of PKR K410E (P30613 whole entry K410E): as the sequence (P30613 whole entry) above, with K410E counted along it
# Sequence of PKR R510Q (P30613 whole entry R510Q): as the sequence (P30613 whole entry) above, with R510Q counted along it
Structure (SMILES),AC50 (wild type PKR [1]) [nM],AC50 (wild type PKR [2]) [nM],AC50 (PKR R510Q) [nM],AC50 (PKR K410E) [nM]
Cn1c2nc(Cc3cc[nH]n3)sc2c2cnn(Cc3ccc(C(N)=O)cn3)c(=O)c21,≤ 1000,301 to 800,> 800,< 300
Cn1c2nc(Cc3cc[nH]n3)sc2c2cnn(Cc3cccc(C(N)=O)n3)c(=O)c21,≤ 1000,< 300,< 300,< 300
Cn1c2nc(Cc3cc[nH]n3)sc2c2cnn(Cc3cccc(C#N)n3)c(=O)c21,≤ 1000,< 300,< 300,< 300
Cn1c2nc(Cc3cc[nH]n3)sc2c2cnn(Cc3ncc(N)s3)c(=O)c21,≤ 1000,< 300,< 300,< 300
Cn1c2nc(Cc3n[nH]cc3F)sc2c2cnn(Cc3nc(N)ccc3F)c(=O)c21,≤ 1000,< 300,< 300,< 300
Cn1c2nc(Cc3cc[nH]n3)sc2c2cnn(Cc3n[nH]cc3O)c(=O)c21,≤ 1000,< 300,< 300,< 300
COc1c[nH]nc1Cn1ncc2c3sc(Cc4n[nH]cc4F)nc3n(C)c2c1=O,≤ 1000,< 300,< 300,< 300
Cc1scnc1Cn1ncc2c3sc(Cc4n[nH]cc4F)nc3n(C)c2c1=O,≤ 1000,< 300,< 300,< 300
Cn1c2nc(Cc3cc[nH]n3)sc2c2cnn(Cc3nc(C#N)cs3)c(=O)c21,≤ 1000,< 300,< 300,< 300
Cn1c2nc(Cc3cc[nH]n3)sc2c2cnn(Cc3nc(C(N)=O)cs3)c(=O)c21,≤ 1000,< 300,< 300,< 300
Cn1c2nc(Cc3n[nH]cc3F)sc2c2cnn(Cc3ncsc3Cl)c(=O)c21,≤ 1000,< 300,< 300,< 300
Cn1c2nc(Cc3cc[nH]n3)sc2c2cnn(Cc3cnc(N)o3)c(=O)c21,≤ 1000,< 300,301 to 800,< 300
Cn1cc(OC(F)(F)F)c(Cn2ncc3c4sc(Cc5cc[nH]n5)nc4n(C)c3c2=O)n1,≤ 1000,< 300,< 300,< 300
Cn1c2nc(Cc3cc[nH]n3)sc2c2cnn(Cc3cnc(C(N)=O)o3)c(=O)c21,> 1000,301 to 800,301 to 800,301 to 800
Cn1c2nc(Cc3cc[nH]n3)sc2c2cnn(Cc3ncsc3F)c(=O)c21,≤ 1000,< 300,< 300,< 300
Cn1c2nc(Cc3cc[nH]n3)sc2c2cnn(Cc3c[nH]c(C(N)=O)n3)c(=O)c21,≤ 1000,< 300,< 300,< 300
Cn1c2nc(Cc3cc[nH]n3)sc2c2cnn(Cc3coc(Cl)n3)c(=O)c21,≤ 1000,< 300,< 300,< 300
Cn1c2nc(Cc3cc[nH]n3)sc2c2cnn(Cc3csc(Cl)n3)c(=O)c21,≤ 1000,< 300,< 300,< 300
Cn1c2nc(Cc3cc[nH]n3)sc2c2cnn(Cc3ccn(N)n3)c(=O)c21,≤ 1000,< 300,< 300,< 300
COCc1cn(C)nc1Cn1ncc2c3sc(Cc4cc[nH]n4)nc3n(C)c2c1=O,> 1000,> 800,> 800,> 800
Cn1c2nc(Cc3cc[nH]n3)sc2c2cnn(Cc3ncoc3Cl)c(=O)c21,≤ 1000,< 300,< 300,< 300
